Laboratory results reported in ChEMBL document CHEMBL5316347, “Design, Synthesis, and Biological Evaluation of Bipyridazine Derivatives as Stimulator of Interferon Genes (STING) Receptor Agonists” (J Med Chem, 2023).
One block for each compound: values may come before it. The source made the active and inactive calls. No cut-off for these calls is given here.

Columns and labels:
[1] = molecular target: T1, Stimulator of interferon genes protein (Mus musculus, UniProt Q3TBT3); test: Agonist activity at mouse STING in mouse RAW-Lucia ISG cells incubated for 24 hrs in presence of PMA by luciferase reporter assay; format: cell-based
T1 sequence (Q3TBT3 whole entry): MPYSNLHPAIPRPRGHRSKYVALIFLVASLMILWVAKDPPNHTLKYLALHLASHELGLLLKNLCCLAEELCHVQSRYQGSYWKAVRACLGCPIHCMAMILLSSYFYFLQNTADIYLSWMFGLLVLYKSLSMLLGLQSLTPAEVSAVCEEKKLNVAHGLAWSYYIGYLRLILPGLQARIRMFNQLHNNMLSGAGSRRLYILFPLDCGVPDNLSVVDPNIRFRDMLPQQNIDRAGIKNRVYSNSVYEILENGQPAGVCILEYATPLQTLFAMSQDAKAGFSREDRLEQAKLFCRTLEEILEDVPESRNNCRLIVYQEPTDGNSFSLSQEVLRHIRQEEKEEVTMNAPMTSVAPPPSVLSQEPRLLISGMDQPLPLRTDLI

[2] = molecular target: T1, Stimulator of interferon genes protein; test: Agonist activity at mouse STING in STING knockout mouse RAW-Lucia ISG cells incubated for 24 hrs in presence of PMA by luciferase reporter assay; format: cell-based
[3] = tested on: THP-1; test: Cytotoxicity against human THP-1 cells assessed as inhibition of cell growth upto 40 uM measured after 24 hrs in presence of PMA by CellTiter-Glo viability assay; format: toxicity, cell-based; details: thp-1, 24 h
[4] = molecular target: T2, Stimulator of interferon genes protein (Homo sapiens, UniProt Q86WV6); test: Agonist activity at human STING in human THP1-Blue ISG cells incubated for 24 hrs in presence of PMA by luciferase reporter assay; format: cell-based
[5] = tested on: Stimulator of interferon genes protein (Homo sapiens), Q86WV6 [UNDEFINED MUTATION]; details: dose 50.0 µM
[6] = molecular target: T1, Stimulator of interferon genes protein; test: Agonist activity at mouse 6His-tagged recombinant STING CTD (144 to 378 residues) expressed in Escherichia coli BL21 (DE3) incubated for 10 mins by FRET assay
[7] = Half life in C57BL/6 mouse at 10 mg/kg, iv qd measured upto 24 hrs by LC-MS/MS analysis; format: ADME, organism-based; details: in vivo
[8] = AUC(0 to t) in C57BL/6 mouse at 10 mg/kg, iv qd measured upto 24 hrs by LC-MS/MS analysis; format: ADME, organism-based; set-up: dose 10 mg/kg, time < 24 hrs, route iv; details: in vivo
[9] = AUC(0 to infinity) in C57BL/6 mouse at 10 mg/kg, iv qd measured upto 24 hrs by LC-MS/MS analysis; format: ADME, organism-based; set-up: time < 24 hrs, dose 10 mg/kg, route iv; details: in vivo
[10] = Clearance in C57BL/6 mouse at 10 mg/kg, iv qd measured upto 24 hrs by LC-MS/MS analysis; format: ADME, organism-based; details: in vivo
[11] = MRT(0 to infinity) in C57BL/6 mouse at 10 mg/kg, iv qd measured upto 24 hrs by LC-MS/MS analysis; format: ADME, organism-based; details: in vivo
[12] = Volume of distribution at steady state in C57BL/6 mouse at 10 mg/kg, iv qd measured upto 24 hrs by LC-MS/MS analysis; format: ADME, organism-based; details: in vivo, read-out: Vdss
[13] = molecular target: T2, Stimulator of interferon genes protein; test: Agonist activity at human STING in STING knockout human THP1-Blue ISG cells incubated for 24 hrs in presence of PMA by luciferase reporter assay; format: cell-based
[14] = Toxicity in C57BL/6 mouse implanted with mouse B16-F10 cells assessed as body weight loss at 10 mg/kg, […] measured for 14 days; format: organism-based; details: in vivo, 336 h, time 14 day
[15] = molecular target: T3, Stimulator of interferon genes protein (Mus musculus) (UniProt Q3TBT3); test: Binding affinity to mouse 6His-tagged recombinant STING CTD (144 to 378 residues) expressed in Escherichia coli BL21 (DE3) assessed as thermal stability at 50 uM by measuring change in melting temperature by SYPRO orange dye based analysis; details: filed as agonist
T3 sequence (whole entry): T1 sequence (Q3TBT3 whole entry)

[16] = tested on: B16-F10; test: Antitumor activity against mouse B16-F10 cells implanted in C57BL/6 mouse assessed tumor growth inhibition at 10 mg/kg, ip qd measured for 14 days; format: functional, organism-based; details: time 14.0 day
[17] = tested on: B16-F10; test: Antitumor activity against mouse B16-F10 cells implanted in C57BL/6 mouse assessed tumor growth inhibition at 30 mg/kg, ip qd measured for 14 days; format: functional, organism-based; details: time 14.0 day

T2 sequence (Q86WV6 whole entry): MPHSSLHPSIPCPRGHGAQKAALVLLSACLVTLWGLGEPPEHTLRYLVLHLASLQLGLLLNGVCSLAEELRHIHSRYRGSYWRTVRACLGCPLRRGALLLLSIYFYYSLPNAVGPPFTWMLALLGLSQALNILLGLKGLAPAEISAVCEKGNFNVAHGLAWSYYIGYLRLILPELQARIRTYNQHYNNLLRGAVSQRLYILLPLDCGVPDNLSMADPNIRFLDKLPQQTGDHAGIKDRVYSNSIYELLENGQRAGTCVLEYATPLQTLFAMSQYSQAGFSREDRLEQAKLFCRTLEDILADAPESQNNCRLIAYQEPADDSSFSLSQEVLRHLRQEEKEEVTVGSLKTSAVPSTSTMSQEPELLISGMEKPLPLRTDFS
Chain of Stimulator of interferon genes protein (Homo sapiens), Q86WV6 [UNDEFINED MUTATION] (Q86WV6 whole entry, looked up, stated change not applied, the tested form may be a part): as the sequence (Q86WV6 whole entry) above

SMILES: O=C(Nc1cc(Br)ccc1C(=O)O)c1ccc(-c2ccnnc2)nn1
EC50 [1]: > 200 µM | EC50 [2]: > 200 µM | Activity [3]: Non-Toxic

SMILES: O=C(Nc1cc(Br)c(F)cc1C(=O)O)c1ccc(-c2ccnnc2)nn1
IC50 [6]: 1.9 µM | EC50 [1]: 42 µM | EC50 [2]: > 200 µM | Activity [3]: Non-Toxic

SMILES: O=C(Nc1cc(Cl)c(F)cc1C(=O)O)c1ccc(-c2ccnnc2)nn1
IC50 [6]: 0.93 µM | EC50 [1]: 35.3 µM | EC50 [2]: > 200 µM | Activity [3]: Non-Toxic

SMILES: O=C(Nc1cc(F)c(F)cc1C(=O)O)c1ccc(N2CCOCC2)nn1
EC50 [4]: > 100 µM | ΔTm [5]: 0 °C

SMILES: O=C(Nc1cc(C(F)(F)F)ccc1C(=O)O)c1ccc(-c2ccnnc2)nn1
EC50 [4]: > 100 µM | ΔTm [5]: 0 °C

SMILES: CCCn1c(NC(=O)c2cc(C)nn2CC)nc2cc(C(N)=O)cc(OC3COC3)c21
IC50 [6]: 4.35 µM | EC50 [1]: 5.22 µM | EC50 [2]: > 200 µM | Activity [3]: Toxic | half-life [7]: 1.13 h | AUC(0-t) at 24 h [8]: 3820 ng·h/mL | AUC(0-inf) [9]: 3830 ng·h/mL | clearance [10]: 43.8 mL/min/kg | MRT inf [11]: 0.894 h | Vd [12]: 2.38 L/kg

SMILES: O=C(Nc1cc(F)c(F)cc1C(=O)O)c1ccc(-c2ccoc2)nn1
EC50 [4]: 38 µM | ΔTm [5]: 0 °C

SMILES: O=C(Nc1cc(F)c(F)cc1C(=O)O)c1ccc(-n2cccc2)nn1
EC50 [4]: 33.6 µM | ΔTm ([5]; filed as agonist): 0.5 °C

SMILES: COc1ccc(NC(=O)c2ccc(-c3ccnnc3)nn2)c(C(=O)O)c1
EC50 [4]: > 100 µM | ΔTm [5]: 0 °C

SMILES: O=C(Nc1cc(F)c(F)cc1C(=O)O)c1ccc(N2CCCC2)nn1
EC50 [4]: > 100 µM | ΔTm ([5]; filed as agonist): -1 °C

SMILES: O=C(Nc1cc(F)c(F)cc1C(=O)O)c1ccc(-c2cccnc2)nn1
EC50 [4]: 32.7 µM | ΔTm [5]: 0 °C

SMILES: C#Cc1cc(NC(=O)c2ccc(-c3ccnnc3)nn2)c(C(=O)O)cc1F
IC50 [6]: 0.96 µM | EC50 [1]: 12.9 µM | EC50 [2]: > 200 µM | Activity [3]: Non-Toxic | half-life [7]: 2.1 h | AUC(0-t) at 24 h [8]: 4390 ng·h/mL | AUC(0-inf) [9]: 4410 ng·h/mL | clearance [10]: 37.8 mL/min/kg | MRT inf [11]: 1.06 h | Vd [12]: 2.39 L/kg | Activity [14]: Non-Toxic

SMILES: O=C(Nc1cc(F)c(F)cc1C(=O)O)c1ccc(-n2ccnc2)nn1
IC50 [6]: 1.6 µM | ΔTm [15]: 9 °C | EC50 [2]: > 200 µM | half-life [7]: 1.82 h | AUC(0-t) at 24 h [8]: 1360 ng·h/mL | AUC(0-inf) [9]: 1370 ng·h/mL | clearance [10]: 123 mL/min/kg | MRT inf [11]: 0.495 h | Vd [12]: 3.62 L/kg | inhibition [16]: inactive | inhibition [17]: Active

SMILES: O=C(Nc1ccccc1C(=O)O)c1ccc(-c2ccnnc2)nn1
EC50 [4]: > 100 µM | ΔTm ([5]; filed as agonist): 0.5 °C

SMILES: O=C(Nc1ccc(C(F)(F)F)cc1C(=O)O)c1ccc(-c2ccnnc2)nn1
EC50 [4]: 1940 µM | ΔTm ([5]; filed as agonist): 3.5 °C

The remaining compounds from weak to strong by EC50 [4], led by results:

EC50 [4]: 32.3 µM | ΔTm [5]: 0 °C
SMILES: O=C(Nc1cc(F)c(F)cc1C(=O)O)c1ccc(-c2cncnc2)nn1

EC50 [4]: 29.9 µM | ΔTm [5]: 0 °C
SMILES: CC(=O)c1ccn(-c2ccc(C(=O)Nc3cc(F)c(F)cc3C(=O)O)nn2)c1

EC50 [4]: 22.8 µM | ΔTm [5]: 0 °C
SMILES: Cc1cncn1-c1ccc(C(=O)Nc2cc(F)c(F)cc2C(=O)O)nn1

EC50 [4]: 22.3 µM | ΔTm ([5]; filed as agonist): 1 °C
SMILES: O=C(Nc1cc(F)c(F)cc1C(=O)O)c1ccc(Nc2cn[nH]c2)nn1

EC50 [4]: 21.3 µM | ΔTm ([5]; filed as agonist): 0.5 °C
SMILES: COc1cc(NC(=O)c2ccc(-c3ccnnc3)nn2)c(C(=O)O)cc1OC

EC50 [4]: 20.6 µM | ΔTm ([5]; filed as agonist): 0 °C
SMILES: Cn1cc(-c2ccc(C(=O)Nc3cc(F)c(F)cc3C(=O)O)nn2)cn1

EC50 [4]: 17.9 µM | ΔTm ([5]; filed as agonist): 6 °C
SMILES: O=C(Nc1cc(F)c(F)cc1C(=O)O)c1ccc(-c2ccnnc2)nn1

EC50 [4]: 17.6 µM | ΔTm ([5]; filed as agonist): 3.5 °C
SMILES: O=C(Nc1cc(F)c(F)cc1C(=O)O)c1ccc(-c2cnsc2)nn1

EC50 [4]: 11.5 µM | ΔTm ([5]; filed as agonist): 1.5 °C
SMILES: O=C(Nc1cc(F)c(F)cc1C(=O)O)c1ccc(-n2cncn2)nn1

EC50 [4]: 10.5 µM | ΔTm ([5]; filed as agonist): 3.5 °C
SMILES: N#Cc1ccn(-c2ccc(C(=O)Nc3cc(F)c(F)cc3C(=O)O)nn2)c1

EC50 [4]: 5.96 µM | ΔTm ([5]; filed as agonist): 1.5 °C
SMILES: COc1ccc(C(=O)O)c(NC(=O)c2ccc(-c3ccnnc3)nn2)c1

EC50 [4]: 4.5 µM | ΔTm ([5]; filed as agonist): 3.5 °C
SMILES: O=C(Nc1ccc(Br)cc1C(=O)O)c1ccc(-c2ccnnc2)nn1

EC50 [4]: 3.51 µM | EC50 [1]: 34.5 µM | EC50 [13]: > 100 µM | EC50 [2]: > 200 µM
SMILES: COc1cc2cc(C(=O)CCC(=O)O)sc2cc1OC
